Experimental data taken from DBAASP.
Values after ≈ are worked out from the molar mass of the structure shown.

Experiments:
Assay in all cases: ≥ marks a high value that may be exact or a test limit, other limits are often not marked, values filed in µg/mL are converted to µM
[1] = test system: Staphylococcus aureus NCTC 8325
[2] = test system: Salmonella enterica subsp. enterica serovar Enteritidis
[3] = test system: Staphylococcus aureus ATCC 29213
[4] = test system: Pseudomonas aeruginosa H103
[5] = test system: Staphylococcus epidermidis
[6] = test system: Salmonella enterica serovar Typhimurium
[7] = test system: Staphylococcus aureus ATCC 25923
[8] = test system: Enterococcus faecalis ATCC 29212
[9] = test system: Candida albicans
[10] = test system: Escherichia coli UB1005
[11] = test system: Pseudomonas aeruginosa PAO1
[12] = test system: Streptococcus pyogenes M1T1 5448
[13] = test system: Escherichia coli BL21
[14] = test system: Staphylococcus aureus USA 300
[15] = test system: Candida albicans ATCC 90028
[16] = test system: Escherichia coli ATCC 25922

MIC [4] | MIC [5] | MIC [6] | MIC [7] | MIC [9] | MIC [10] | MIC [11] | MIC [12] | MIC [13] | SMILES | also measured
 |  |  |  |  |  |  |  |  | CC[C@H](C)[C@H](NC(=O)[C@H](CO)NC(=O)[C@@H]1CCCN1C(=O)[C@H](CC(C)C)NC(=O)[C@@H](NC(=O)[C@H](CCCCN)NC(=O)[C@H](C)NC(=O)[C@H](C)NC(=O)[C@H](CC(C)C)NC(=O)CNC(=O)[C@H](C)NC(=O)[C@@H](NC(=O)[C@@H](NC(=O)[C@@H]1CCCN1C(=O)[C@H](CC(C)C)NC(=O)[C@@H](N)Cc1ccccc1)C(C)C)C(C)C)C(C)C)C(=O)N[C@H](C(=O)N[C@H]1CSSC[C@@H](C(=O)O)NC(=O)[C@H](CCCCN)NC(=O)[C@H](CCCCN)NC(=O)[C@H]([C@@H](C)O)NC(=O)[C@H](C(C)C)NC(=O)[C@H](C)NC1=O)[C@@H](C)CC [FLPVVAGLAAKVLPSIICAVTKKC] | MIC [1]: 7 µM (≈ 17.1 µg/mL); MIC [2]: ≥ 52.4 µM; MIC [3]: 2.32 µM (≈ 5.65 µg/mL)
5.6 µM (≈ 9.66 µg/mL) | 0.3 µM (≈ 0.517 µg/mL) | 2.8 µM (≈ 4.83 µg/mL) | 0.7 µM (≈ 1.21 µg/mL) | 11.1 µM (≈ 19.1 µg/mL) | 1.4 µM (≈ 2.41 µg/mL) |  |  |  | CC[C@H](C)[C@H](NC(=O)[C@H](CCCCN)NC(=O)[C@H](Cc1c[nH]c2ccccc12)NC(=O)[C@H](CCCNC(=N)N)NC(=O)[C@@H](N)CCCNC(=N)N)C(=O)N[C@H](C(=O)N[C@H](C(=O)N[C@H](C(=O)N[C@@H](CCCNC(=N)N)C(=O)N[C@@H](Cc1c[nH]c2ccccc12)C(=O)N[C@@H](CCCNC(=N)N)C(=O)N[C@@H](CCCNC(=N)N)C(=O)O)[C@@H](C)CC)C(C)C)C(C)C [RRWKIVVIRWRR] | MIC [8]: 1.4 µM (≈ 2.41 µg/mL)
 |  |  |  |  |  | 8 µM (≈ 24.9 µg/mL) | 0.5 µM (≈ 1.56 µg/mL) | 2 µM (≈ 6.23 µg/mL) | CC[C@H](C)[C@H](NC(=O)[C@H](CCCN=C(N)N)NC(=O)[C@H](CCC(N)=O)NC(=O)[C@@H](NC(=O)CNC(=O)[C@@H](N)Cc1c[nH]c2ccccc12)[C@@H](C)O)C(=O)N[C@@H](CCCCN)C(=O)N[C@@H](C)C(=O)N[C@@H](Cc1ccc(O)cc1)C(=O)N[C@@H](CC(C)C)C(=O)N[C@@H](CCCN=C(N)N)C(=O)N[C@@H](CCCN=C(N)N)C(=O)N[C@@H](CCC(=O)O)C(=O)N[C@H](C(=O)N[C@@H](CCCN=C(N)N)C(=O)N[C@@H](CCCCN)C(=O)N[C@@H](CCCN=C(N)N)C(=O)NCC(=O)N[C@@H](CCCN=C(N)N)C(=O)N[C@@H](CCCCN)C(=O)N[C@@H](C)C(=O)N[C@H](C(=O)N[C@H](C(=O)N[C@@H](C)C(=O)N[C@@H](Cc1c[nH]c2ccccc12)C(=O)O)[C@@H](C)CC)C(C)C)[C@@H](C)CC [WGTQRIKAYLRREIRKRGRKAVIAW] | 
 |  |  |  |  |  | 64 µM (≈ 189 µg/mL) | 0.25 µM (≈ 0.739 µg/mL) | 1 µM (≈ 2.96 µg/mL) | CC[C@H](C)[C@H](NC(=O)[C@H](CCCCN)NC(=O)[C@H](CCCCN)NC(=O)CNC(=O)[C@H](CCC(=O)O)NC(=O)[C@H](CCC(N)=O)NC(=O)[C@@H](NC(=O)[C@H](CCCCN)NC(=O)[C@H](CCCCN)NC(=O)[C@H](CCCCN)NC(=O)[C@H](CC(C)C)NC(=O)[C@H](CCCN=C(N)N)NC(=O)[C@H](CCC(N)=O)NC(=O)[C@H](Cc1ccccc1)NC(=O)[C@@H](NC(=O)[C@H](CCCCN)NC(=O)[C@H](CCC(=O)O)NC(=O)[C@@H](NC(=O)CNC(=O)[C@H](C)N)[C@@H](C)O)[C@@H](C)CC)[C@@H](C)CC)C(=O)N[C@@H](C)C(=O)N[C@@H](CCCCN)C(=O)N[C@@H](CCCN=C(N)N)C(=O)N[C@@H](C)C(=O)N[C@@H](Cc1c[nH]c2ccccc12)C(=O)O [AGTEKIFQRLKKKIQEGKKIAKRAW] | MIC [14]: 8 µM (≈ 23.7 µg/mL)
 |  |  |  |  |  | 8 µM (≈ 25 µg/mL) | 2 µM (≈ 6.25 µg/mL) | 2 µM (≈ 6.25 µg/mL) | CC[C@H](C)[C@H](NC(=O)[C@H](CCCN=C(N)N)NC(=O)[C@H](CCC(N)=O)NC(=O)[C@@H](NC(=O)[C@H](Cc1c[nH]c2ccccc12)NC(=O)[C@H](C)N)[C@@H](C)O)C(=O)N[C@@H](CCCCN)C(=O)N[C@@H](C)C(=O)N[C@@H](Cc1ccc(O)cc1)C(=O)N[C@@H](CC(C)C)C(=O)N[C@@H](CCCN=C(N)N)C(=O)N[C@@H](CCCN=C(N)N)C(=O)N[C@@H](CCC(=O)O)C(=O)N[C@H](C(=O)N[C@@H](CCCN=C(N)N)C(=O)N[C@@H](CCCCN)C(=O)N[C@@H](CCCN=C(N)N)C(=O)NCC(=O)N[C@@H](CCCN=C(N)N)C(=O)N[C@@H](CCCCN)C(=O)N[C@@H](C)C(=O)N[C@H](C(=O)N[C@H](C(=O)N[C@@H](C)C(=O)N[C@@H](Cc1c[nH]c2ccccc12)C(=O)O)[C@@H](C)CC)C(C)C)[C@@H](C)CC [AWTQRIKAYLRREIRKRGRKAVIAW] | 
 |  |  |  |  |  | 2 µM (≈ 6.17 µg/mL) | 2 µM (≈ 6.17 µg/mL) | 1 µM (≈ 3.08 µg/mL) | CC[C@H](C)[C@H](NC(=O)[C@H](CCCN=C(N)N)NC(=O)[C@H](CCC(N)=O)NC(=O)[C@H](Cc1c[nH]c2ccccc12)NC(=O)CNC(=O)[C@H](C)N)C(=O)N[C@@H](CCCCN)C(=O)N[C@@H](C)C(=O)N[C@@H](Cc1ccc(O)cc1)C(=O)N[C@@H](CC(C)C)C(=O)N[C@@H](CCCN=C(N)N)C(=O)N[C@@H](CCCN=C(N)N)C(=O)N[C@@H](CCC(=O)O)C(=O)N[C@H](C(=O)N[C@@H](CCCN=C(N)N)C(=O)N[C@@H](CCCCN)C(=O)N[C@@H](CCCN=C(N)N)C(=O)NCC(=O)N[C@@H](CCCN=C(N)N)C(=O)N[C@@H](CCCCN)C(=O)N[C@@H](C)C(=O)N[C@H](C(=O)N[C@H](C(=O)N[C@@H](C)C(=O)N[C@@H](Cc1c[nH]c2ccccc12)C(=O)O)[C@@H](C)CC)C(C)C)[C@@H](C)CC [AGWQRIKAYLRREIRKRGRKAVIAW] | 
 |  |  |  |  |  |  |  |  | CC[C@H](C)[C@H](N)C(=O)N1CCC[C@H]1C(=O)N[C@@H](Cc1cnc[nH]1)C(=O)N[C@@H](C)C(=O)N[C@H](C(=O)N[C@@H](CCCCN)C(=O)N[C@@H](C)C(=O)N[C@H](C(=O)N[C@@H](CO)C(=O)N[C@@H](CC(=O)O)C(=O)N[C@@H](CC(C)C)C(=O)N[C@H](C(N)=O)[C@@H](C)CC)[C@@H](C)CC)C(C)C [IPHAVKAISDLI] | MIC [1]: ≥ 200 µM; MIC [15]: ≥ 200 µM; MIC [16]: > 200 µM
3.91 µM (≈ 6 µg/mL) | 1.04 µM (≈ 1.6 µg/mL) | 3.91 µM (≈ 6 µg/mL) | 7.81 µM (≈ 12 µg/mL) | 3.91 µM (≈ 6 µg/mL) | 1.95 µM (≈ 3 µg/mL) |  |  |  | CC[C@H](C)[C@H](NC(=O)[C@H](CCCN=C(N)N)NC(=O)[C@H](CC(C)C)NC(=O)[C@H](CCC(N)=O)NC(=O)[C@@H](N)C(C)C)C(=O)N[C@@H](CCCN=C(N)N)C(=O)N[C@H](C(=O)N[C@@H](CCCN=C(N)N)C(=O)N[C@H](C(=O)N[C@H](C(=O)N[C@@H](CCCN=C(N)N)C(=O)N[C@@H](CCCCN)C(N)=O)[C@@H](C)CC)C(C)C)C(C)C [VQLRIRVRVIRK] | 
≥ 43 µM | 10.9 µM (≈ 16 µg/mL) | 21.2 µM (≈ 31 µg/mL) | 43 µM (≈ 63 µg/mL) | 85.3 µM (≈ 125 µg/mL) | 10.9 µM (≈ 16 µg/mL) |  |  |  | CC[C@H](C)[C@H](NC(=O)[C@@H](NC(=O)[C@@H](NC(=O)[C@H](CCCN=C(N)N)NC(=O)[C@H](CCCN=C(N)N)NC(=O)[C@H](C)NC(=O)[C@H](CC(C)C)NC(=O)[C@@H](N)CCCN=C(N)N)C(C)C)C(C)C)C(=O)N[C@@H](CCCN=C(N)N)C(=O)N[C@H](C(=O)N[C@@H](C)C(=O)N[C@@H](CCCN=C(N)N)C(N)=O)C(C)C [RLARRVVIRVAR] | MIC [8]: 85.3 µM (≈ 125 µg/mL)
 |  |  |  |  |  | 16 µM (≈ 49.3 µg/mL) | 2 µM (≈ 6.17 µg/mL) | 1 µM (≈ 3.08 µg/mL) | CC[C@H](C)[C@H](NC(=O)[C@H](CCCN=C(N)N)NC(=O)[C@H](C)NC(=O)[C@H](CCCCN)NC(=O)[C@H](CCCN=C(N)N)NC(=O)CNC(=O)[C@@H](NC(=O)[C@H](CCCCN)NC(=O)[C@H](CCCN=C(N)N)NC(=O)[C@@H](NC(=O)[C@H](CCC(=O)O)NC(=O)[C@H](CCCN=C(N)N)NC(=O)[C@H](CCCN=C(N)N)NC(=O)[C@H](CC(C)C)NC(=O)[C@H](Cc1ccc(O)cc1)NC(=O)[C@H](C)NC(=O)[C@H](CCCCN)NC(=O)[C@@H](NC(=O)[C@H](Cc1c[nH]c2ccccc12)NC(=O)[C@H](CCC(N)=O)NC(=O)[C@H](CCCN=C(N)N)NC(=O)CNC(=O)[C@H](C)N)[C@@H](C)CC)[C@@H](C)CC)C(C)C)C(=O)N[C@@H](C)C(=O)N[C@@H](Cc1c[nH]c2ccccc12)C(=O)O [AGRQWIKAYLRREIRKVGRKARIAW] | 
